Results on eight molecules are retold here after patent US12350364B2, “Lipid body compositions, products made therefrom, methods of making same, and methods of use” (Xylome Corporation, priority 2019, dated 2025).

Assay type in all cases: physicochemical
The nature of series [1]: Drug loading into lipid-body composition and release into PBS (UV-VIS / HPLC). The settings on record: for drug released, concentration: 6-fold dilution.
Series [2] can be described thus: Uptake of hydrophobic dyes by lipid bodies (mixing, centrifugation/flotation). Conditions: for uptake of hydrophobic model compound into lipid bodies: about 50% lipid bodies, mixed about 10 minutes, centrifuged. The procedure:
In this example, fermentations of different engineered hyper lipogenic Lipomyces starkeyi were used to create lipid bodies. Using the engineered hyper-lipogenic strain XYL-403, compositions of lipid bodies were prepared with a diameter from 6.9+/−1.4 microns when measured under a microscope using a calibrated Petroff Hauser counter. Following the initial preparation of lipid bodies, the lipid bodies were fused using high levels of salt at 1M NaCl, solvents such as ethanol at 20% (v/v) in water, and application of shear force using centrifugation (FIG. 12A). Homogenization, filtration, or chemical treatments can be used as alternatives to or in additional centrifugation to induce shear force. Thus, compositions utilizing even larger lipid bodies (e.g., between 12 to 50 μm) can be developed using physically modified and merged lipid bodies. The advantages of larger lipid bodies can be extended using high total volumes of drug carrying capacity.
This example opens the possibility of even higher volumetric carrying capacity of lipid-body compositions of the invention when expanded to the upper limit of known diameter.
In this example, lipid bodies at about 50% concentration in base composition of example 1A were subjected to the addition of concentrated Nile red, which had been solubilized in DMSO and used in this example as a surrogate for a hydrophobic compound or hydrophobic drug. The lipid-body composition was mixed with Nile red for 10 minutes and centrifuged. After centrifugation, the lipid bodies separate by flotation and all of the Nile red entered into the lipid bodies. The lipid bodies remain hydrophilic on the exterior of the lipid body spheres and continue to feel aqueous.
In another version of this example, lipid bodies at approximately 50% by dry weight were mixed with a second hydrophobic model drug compound, Sudan black. […] Similar to the Nile red results, Sudan black is shown to be taken up by lipid bodies (FIG. 13B).

Series [3] can be described thus: Lidocaine binding and partitioning into lipid bodies (UV 260 nm after 0.2 μm filtration). An excerpt: Lipid bodies were cleared of excipients and antimicrobial preservative by undergoing a 1:10 wash in ethanol followed by rehydration in distilled water.
[4] abbreviates: 100 μL of 5 mg/mL stock per 1 g lipid bodies, 300 mg in 1 mL PBS, 15 min, room temperature, UV 343 nm.
The mark [5] stands for this setting: Example 19: dry powder loading plus 33 μL PBS, UV 350 nm.

Consider `CC(C)OC(=O)CCC/C=C\C[C@@H]1[C@@H](/C=C/[C@@H](O)COc2cccc(C(F)(F)F)c2)[C@H](O)C[C@@H]1O` [Travoprost], for which the Travoprost released in series [1] (first procedure: 2 μL of 25 mg/mL per 1 g lipid bodies, 300 mg in 1 mL PBS, HPLC 210 nm) is on record as 50%. The Travoprost release in series [1] (second procedure: 250 μg evaporated concentrate per 1 g lipid bodies, 100 mg in 1 mL PBS, HPLC) was 60.7%.
As to `CC1(C)Nc2cccc3c(N=Nc4ccc(N=Nc5ccccc5)c5ccccc45)ccc(c23)N1` [Sudan black], in series [2], the “uptake of hydrophobic model compound into lipid bodies” value is on record as “essentially all of the Sudan black loaded into the lipid bodies”. Moreover, in series [2] (merged very large lipid bodies (1M NaCl, 20% ethanol, centrifugation)), the “taken up into the lipid bodies” value is given as about 100%.
On to `CCCCc1nc(Cl)c(CO)n1Cc1ccc(-c2ccccc2-c2nn[nH]n2)cc1` [Losartan], for which, in series [1] (100 μL of 5 mg/mL stock per 1 g lipid bodies, 300 mg in 1 mL PBS, HPLC 210 nm, 3.9 minutes), the “Losartan released into 1 mL PBS, concentration” value came out at 54.4 µg/mL. The molecule further showed a total release in series [1] (Losartan, 300 mg in 1 mL PBS, HPLC 210 nm) of 36.3%.
Turning to `CCN(CCO)CCCC(C)Nc1ccnc2cc(Cl)ccc12` (stereo not drawn) [hydroxychloroquine], in series [1] (setting [4]), the total release turned out to be 10.4% and the “drug released, concentration” value was found to be 5.66 µg/mL.
With `COc1cc2c(c(OC)c1OC)-c1ccc(OC)c(=O)cc1[C@@H](NC(C)=O)CC2` [colchicine], the colchicine released in series [1] (Example 15: 55% aqueous/45% drug-containing lipid-body composition, 100 μL of 2 mg/mL stock per 1 g lipid body, 300 mg in 1 mL PBS, 15 min, room temperature, UV 350 nm) is 5.9 µg/mL; in series [1] (Example 16: 62% liquid/38% composition, HPLC) it was 41%; in series [1] (Example 17: 67% liquid/33% drug-containing lipid-body composition, 178 μL PBS added, UV 350 nm), 22.6 µg/mL; in series [1] (Example 18: 30 mg dry powder mixed into 1 g lipid bodies, 300 mg in 2 mL PBS, 15 min, room temperature, UV 350 nm), 3,390 μg/mL; in series [1] (setting [5]), 4000 µg/mL. In series [1] (Example 15: 55% aqueous/45% drug-containing lipid-body composition, 300 mg in 1 mL PBS, 15 min, room temperature, UV 350 nm), the drug release was determined as 9.8%. The drug released in series [1] (Example 16: 62% liquid/38% composition, HPLC (350 nm, 2.9 minutes)) is 61.5 µg/mL; in series [1] (Example 16: 62% liquid/38% drug-containing lipid-body composition, 5 mg/mL stock, 200 μL PBS added, 1 mL PBS, room temperature, UV 350 nm), 51.8 µg/mL. Also, the “released, % of the total colchicine” value in series [1] (Example 16: 62% liquid/38% composition, UV 350 nm) came out at 34.5%; in series [1] (setting [5]), 44%. For the same molecule, in series [1] (Example 17: 67% liquid/33% composition, UV 350 nm), the “released, % of the total compound loaded” value was 15.1%. For the same molecule, the “released, % of the total colchicine present” value in series [1] (Example 18: dry powder loading, 50% lipid-body composition, UV 350 nm) was determined as 37.6%.
Take `CCN(CC)c1ccc2nc3c4ccccc4c(=O)cc-3oc2c1` [Nile red]: the “uptake of hydrophobic model compound into lipid bodies” value in series [2] is recorded as “quantitatively complete”.
Regarding `CCN(CC)CC(=O)Nc1c(C)cccc1C` [Lidocaine], the “Lidocaine in Aqueous Cream Fraction” value in series [3] (500 μg Lidocaine in Salt (1M NaCl)) was determined as 72%; in series [3] (500 μg Lidocaine in Water) it was 83%; in series [3] (Control: 500 μg Lidocaine without Lipid Bodies and Filtered), 100%.
Turning to `CCN(CC)CCCC(C)Nc1ccnc2cc(Cl)ccc12` (stereo not drawn) [chloroquine], the total release in series [1] (setting [4]) worked out at 8.1%; in series [1] (Example 21, repeat dilution (1 to 3 then 1 to 2)), 8.1%. For the same molecule, the “drug released, concentration” value in series [1] (setting [4]) worked out at 12.1 µg/mL.
